Three compounds from ChEMBL document CHEMBL5647692, “The novel dual PI3K/mTOR inhibitor NVP-BGT226 displays cytotoxic activity in both normoxic and hypoxic hepatocarcinoma cells” (Oncotarget, 2015) can be followed below.

Molecules are shown by their SMILES. Activity calls are given as the source filed them. The rule behind the calls is not given here. Peptide text beside a SMILES is read from it. * marks the point of attachment. Cbz = O=C(OCc1ccccc1)*; CH2F = FC*

Assay [1] relates to Mahlavu. The experiment in a line: Cytotoxicity against human Mahlavu cells assessed as reduction in cell viability at 10 uM incubated for 24 hrs under normoxia condition by MTT assay. The format is functional, cell-based.
Assay [2] relates to Mahlavu. The experiment in a line: Cytotoxicity against human Mahlavu cells assessed as reduction in cell viability at 25 uM incubated for 24 hrs under hypoxia condition by MTT assay. It is filed as functional, cell-based. For orientation: Formazan colour is commonly taken as a measure of viable cells.
The test system of assay [3] is SNU-475. Briefly: Cytotoxicity against human SNU-475 cells assessed as reduction in cell viability at 25 uM incubated for 24 hrs under hypoxia condition by MTT assay. It is filed as functional, cell-based.
Assay [4] relates to Mahlavu. The experiment in a line: Cytotoxicity against human Mahlavu cells assessed as reduction in cell viability at 10 uM incubated for 24 hrs in presence of BGT226 under hypoxia condition by MTT assay. The format is functional, cell-based.
Assay [5] concerns SNU-475. The experiment in a line: Cytotoxicity against human SNU-475 cells assessed as reduction in cell viability at 25 uM incubated for 24 hrs in presence of BGT226 under hypoxia condition by MTT assay. The format is functional, cell-based.
The test system of assay [6] is SNU-475. The experiment in a line: Cytotoxicity against human SNU-475 cells assessed as reduction in cell viability at 10 uM incubated for 24 hrs under hypoxia condition by MTT assay. The format is functional, cell-based.
In assay [7] the test system is SNU-475. Briefly: Induction of autophagy in human SNU-475 cells assessed as reduction in cytotoxicity at 10 to 25 uM incubated for 24 hrs by MTT assay. It is filed as functional, cell-based. The following applies: dose 10-25 µM.
Assay [8] relates to Mahlavu. Briefly: Cytotoxicity against human Mahlavu cells assessed as reduction in cell viability at 25 uM incubated for 24 hrs in presence of BGT226 under hypoxia condition by MTT assay. The format is functional, cell-based.
The test system of assay [9] is SNU-475. Briefly: Cytotoxicity against human SNU-475 cells assessed as reduction in cell viability at 10 uM incubated for 24 hrs in presence of BGT226 under hypoxia condition by MTT assay. The format is functional, cell-based.
Assay [10] relates to Mahlavu. Briefly: Induction of autophagy in human Mahlavu cells assessed as reduction in cytotoxicity at 10 to 25 uM incubated for 24 hrs by MTT assay. It is filed as functional, cell-based. The following applies: dose 10-25 µM.
Another assay relates to HepG2. The experiment in a line: Cytotoxicity against human HepG2 cells assessed as reduction in cell viability at 10 uM incubated for 24 hrs by MTT assay. It is filed as functional, cell-based.
In assay [11] the test system is Mahlavu. Briefly: Cytotoxicity against human Mahlavu cells assessed as reduction in cell growth at 10 uM incubated for 24 hrs under hypoxia condition by MTT assay. It is filed as functional, cell-based.
Assay [12] relates to Hep 3B2. The experiment in a line: Cytotoxicity against human Hep3B cells assessed as reduction in cell growth at 10 uM incubated for 24 hrs under hypoxia condition by MTT assay. The format is functional, cell-based.
In assay [13] the test system is Hep 3B2. The experiment in a line: Cytotoxicity against human Hep3B cells assessed as reduction in cell viability at 10 uM incubated for 24 hrs by MTT assay. The format is functional, cell-based.
For assay [14], the system named is SNU-449. Briefly: Induction of apoptosis in human SNU-449 cells assessed as early apoptotic cells at 75 uM incubated for 24 hrs by Annexin-V/7-AAD staining based muse cell analyzer method (reference value: 3.95 %). It is filed as functional.
The test system of assay [15] is Mahlavu. The experiment in a line: Induction of apoptosis in human Mahlavu cells assessed as necrotic cells at 75 uM incubated for 24 hrs by Annexin-V/7-AAD staining based muse cell analyzer method (reference value: 0.67 %). The format is functional.
Assay [16] relates to SNU-449. The experiment in a line: Induction of apoptosis in human SNU-449 cells assessed as late apoptotic cells at 75 uM incubated for 24 hrs by Annexin-V/7-AAD staining based muse cell analyzer method (reference value: 5.03 %). It is filed as functional.
For assay [17], the system named is Mahlavu. The experiment in a line: Induction of apoptosis in human Mahlavu cells assessed as viable cells at 75 uM incubated for 24 hrs by Annexin-V/7-AAD staining based muse cell analyzer method (reference value: 90.52 %). The format is functional. The following applies: read-out: Activity.
For assay [18], the system named is SNU-449. Briefly: Induction of apoptosis in human SNU-449 cells assessed as necrotic cells at 75 uM incubated for 24 hrs by Annexin-V/7-AAD staining based muse cell analyzer method (reference value: 0.95 %). The format is functional.
Assay [19] relates to Mahlavu. Briefly: Induction of apoptosis in human Mahlavu cells assessed as early apoptotic cells at 75 uM incubated for 24 hrs by Annexin-V/7-AAD staining based muse cell analyzer method (reference value: 6.57 %). It is filed as functional.
The subject of assay [20] is Mahlavu. Briefly: Induction of apoptosis in human Mahlavu cells assessed as late apoptotic cells at 75 uM incubated for 24 hrs by Annexin-V/7-AAD staining based muse cell analyzer method (reference value: 2.24 %). It is filed as functional.
Assay [21] deals with SNU-449. The experiment in a line: Induction of apoptosis in human SNU-449 cells assessed as viable cells at 75 uM incubated for 24 hrs by Annexin-V/7-AAD staining based muse cell analyzer method (reference value: 90.07 %). The following applies: read-out: Activity. It is filed as functional.

Consider `CCN(CC)CCCC(C)Nc1ccnc2cc(Cl)ccc12` (configuration not stated), for which the outcome with Mahlavu [1], with Mahlavu [2], in the assay with SNU-475 [3], with Mahlavu [4], in the assay on SNU-475 [5] and in the assay with SNU-475 [6] was Active. Further, the outcome in the assay with SNU-475 [7], in the assay with Mahlavu [8], with SNU-475 [9] and with Mahlavu [10] was Active.

As to `Cn1cnc(N)c2ncnc1-2`, the outcome with HepG2, with Mahlavu [11], in the assay with Hep 3B2 [12] and in the assay on Hep 3B2 [13] was inactive.

As to `COC(=O)C[C@H](NC(=O)[C@H](C)NC(=O)[C@@H](NC(=O)OCc1ccccc1)C(C)C)C(=O)CF` (Cbz-Val-Ala-Asp(OMe)-CH2F), the Activity was found to be 4.6% in the assay with SNU-449 [14]; 1.52% with Mahlavu [15]; 5.35% in the assay with SNU-449 [16]; 0.53% in the assay on SNU-449 [18]; 5% in the assay on Mahlavu [19]; 3.78% with Mahlavu [20]. Also, the viability at 75 µM stood at 89.7% in the assay with Mahlavu [17] and 89.5% with SNU-449 [21].
